Like-named read-outs stand apart in the source and are kept apart here.
What was measured:
Human MSCs [1] = assay: MSC growth on PCL scaffolds in growth medium (PicoGreen ds DNA cell number); type: cell-based; conditions: GM; for cell number, change from days 4 to 7: p<0.05; for cell number compared to the other groups: days 7 and 11
Protocol: MSCs were cultured on the scaffolds in the presence of Na2WO4 (Na2WO4.2H2O, MW=329.85 g/mol; Sigma Aldrich) in the range of 0.01-50 mM to determine which concentrations supported cell growth. Before cell seeding, scaffolds were cut into 6 mm diameter disks using a biopsy punch (Integra Miltek, York, Pa.), sterilized in 100% ethanol for 20 minutes and were air dried overnight. Cryopreserved MSCs were thawed and expanded in tissue culture treated polystyrene flasks (Nunc, Thermo Fisher Scientific, Waltham, Mass., USA) in growth medium (GM) comprised of Dulbecco's Modified Eagle's Medium (DMEM, Invitrogen, Grand Island, N.Y., USA), 10% fetal bovine serum (Hyclone, Thermo Fisher Scientific) and 1% antibiotic-antimycotic (Invitrogen) at 37° C. and 5% CO2 until 70-80% confluent. Cells were trypsinized using 0.25% Trypsin-EDTA (Thermo Fisher Scientific), resuspended in GM and then seeded onto scaffolds at 3.5×10^4 cells/cm^2 and cultured for 11 days in GM alone or with Na2WO4. Na2WO4 was added to GM leading to final Na2WO4 concentrations of 0, 0.01, 0.1, 1, 10 and 50 mM. Samples (n=4) were harvested and analyzed at days 4, 7 and 11 for cell number using the PicoGreen® ds DNA assay (Life Technologies).
MSCs of known cell number were used as a standard. Standards and samples were prepared by lysing the cells using 0.1% Triton X-100 (Sigma-Aldrich, Mo., USA). The cell lysate of samples and standards (n=4 per group) was mixed with an equal volume of Pico Green dye, which binds to the double-stranded (ds) DNA. Fluorescence intensity was measured with a microplate reader ((FLX800, Biotek Instruments, Vt., USA)) at 480 nm excitation and 520 nm emission. A standard curve of known cell number was used to determine the sample cell number.

Human MSCs [2] = assay: Chondrogenesis culture: cell number (PicoGreen); type: cell-based
Protocol: (§1) Chondrogenesis Culture. Cryopreserved MSCs were thawed and expanded in GM until 70-80% confluent. Cells were trypsininzed and then seeded on 6 mm diameter scaffold disks at 1.76×10^5 cells/cm^2 and cultured for 28 days in GM, chondrogenic induction medium (CCM), or CCM without insulin, according to previously published methods. CCM consisted of DMEM high glucose containing 4 mM L-glutamine (Invitrogen, Grand Island, N.Y., USA), 0.1 μM dexamethasone (Sigma-Aldrich), 0.17 mM ascorbic acid-2-phosphate (Wako Chemicals, Richmond, Va., USA), 1% ITS+(6.25 µg/mL insulin, 6.25 µg/mL transferrin, 6.25 ng/mL selenous acid, 5.35 μg/ml linoleic acid and 1.25 mg of bovine serum albumin) Premix Culture Supplement (Corning, Corning, N.Y., USA), 1× antibiotic-antimycotic, 1 mM sodium pyruvate (Sigma-Aldrich), 0.35 mM proline (Sigma-Aldrich), and 10 ng/mL recombinant human transforming growth factor-beta3 (TGF-β3, ProSpec, Israel). CCM without insulin consisted of CCM where the 1% ITS+Premix Culture Supplement was substituted with 1% stock solution (6.25 μg/ml transferrin and 6.25 ng/ml selenous acid, 5.35 μg/ml lionleic acid (Sigma-Aldrich) and 1.25 mg of bovine serum albumin (Fisher Scientific). Na2WO4 was added to all media leading to final Na2WO4 concentrations of 0, 0.01, 0.1 and 1 mM. Samples were harvested and analyzed for sulfated glycosaminoglycans (sGAG), cell number and gene expression at day 14 and 28 and for collagen type II and immunostaining at day 28.
Production of sGAG and cell number were determined. Samples were digested using papain (Sigma-Aldrich, Mo., USA) buffer overnight at 65 C. ° following manufacturer's protocol. The sGAG assay is used to measure the total sulfated proteoglycan content using Blyscan sGAG Assay Kit (Biocolor, UK). Cell lysate of samples (n=4 per group) and color reagent were combined in transparent 96-well plate and the absorbance at 656 nm was measured using a microplate spectrophotometer (EMax, Molecular Devices, Melville, N.Y., USA). sGAG concentration was determined relative to chondroitin sulfate standard curve. PicoGreen® ds DNA assay (Life Technologies) was used to determine the cell number. MSCs of known cell number were used as standards. Standards were prepared by lysing the cells using papain buffer. The cell lysate of samples and standards (n=4 per group) was mixed with an equal volume of Pico Green reagent. Fluorescence intensity was measured with a microplate reader ((FLX800, Biotek Instruments, Vt., USA)) at 480 nm excitation and 520 nm emission. A standard curve of known cell number was used to determine the sample cell number. GAG production was normalized to cell number.

SOX-9 = assay: Chondrogenesis culture: gene expression by RT-PCR, SOX-9; type: cell-based, human
Protocol: as §1
Gene expression was evaluated using quantitative reverse transcription (RT)-polymerase chain reaction (PCR) analysis. RT-PCR was performed with RNeasy Micro Kit and SYBR Green RT-PCR Kit (Qiagen; Valencia, Calif., USA) using the MX4000 detection system (Stratagene) according to the manufacturer's protocol. Relative gene expression of SOX-9, aggrecan and collagen type II were determined. Samples (n=4 per group) were harvested and digested using Lysis Buffer. RNA was isolated from the samples using RNeasy Micro Kit (Qiagen) including DNA digestion step (RNase Free DNase Set; Qiagen). The RNA quantity and integrity were determined by measuring the absorbance at 260 nm and the absorbance ratio of 260 nm/280 nm, respectively, using Nanodrop™ Spectrophotometer (Thermo Fisher Scientific). Quantitative PCR analysis was performed using QuantiTect SYBR Green supermix including the QuantiTect Primer Assays. The reverse transcription step ran for 30 minutes at 50° C., 15 minutes at 95° C. of PCR activation followed by forty cycle of amplification consisting of 15 s denaturation at 94° C., 30 s of annealing at 55° C., and 30 s of extension at 72° C. A melting curve analysis of the RT-PCR product was included for each reaction. Samples were analyzed in triplicate and the value of each gene was normalized to the reference gene ribosomal protein, large, P0 (RPLP0) for the same sample (ΔCT). Primers were purchased from Qiagen (Hs_ACAN, QT00001365; Hs_SOX9, QT00001498; Hs_COL2A1, QT00049518; and Hs_RPLP0 QT00075012).

[3] = test system: human peripheral blood lymphocytes; conditions: cited from earlier work
[4] = 0.01 mM Na2WO4, CCM, day 28, p<0.05

SMILES: [Na+].[Na+].[O]=[W](=[O])([O-])[O-] [Na2WO4, sodium tungstate]
- cell number, change from days 4 to 7 (Human MSCs [1]; 0.01 mM Na2WO4): significantly increased in cell numbers
- cell number, change from days 4 to 7 (Human MSCs [1]; 0.1 mM Na2WO4): significantly increased in cell numbers
- cell number compared to the other groups (Human MSCs [1]; 1 mM Na2WO4): significantly lower cell numbers
- cell number compared to the other groups (Human MSCs [1]; 10 mM Na2WO4): significantly lower cell numbers
- cell number compared to the other groups (Human MSCs [1]; 50 mM Na2WO4): significantly lower cell numbers
- cell number vs 0.1 mM (Human MSCs [2]; [4]): significantly higher than 0.1 mM
- cell number vs 0 mM (Human MSCs [2]; 0.1 mM Na2WO4, GM, day 14): significantly higher
- cell number vs other groups (Human MSCs [2]; 1 mM Na2WO4, CCM): significantly lower
- cell number vs all other groups (Human MSCs [2]; 1 mM Na2WO4, CCM without insulin, day 28): significantly lower cell numbers
- SOX-9 gene expression vs 0 mM (SOX-9; 0.01 mM Na2WO4, CCM without insulin, day 14): significantly higher
- SOX-9 gene expression vs 0 mM (SOX-9; [4]): significantly higher SOX-9
- SOX-9 gene expression (SOX-9; 0.1 mM Na2WO4, CCM, day 14, p<0.05): highest SOX-9 gene expression
- SOX-9 gene expression vs 0 mM (SOX-9; 0.1 mM Na2WO4, CCM, day 28, p<0.01): significantly higher SOX-9
- SOX-9 gene expression (SOX-9; 1 mM Na2WO4, CCM): lowest gene expression
- SOX-9 gene expression (chondrogenic genes) (SOX-9; GM with Na2WO4): no significant upregulation of chondrogenic genes
- immune response ([3]; 0.01 mM): did not stimulate an immune response
- immune response ([3]; 0.1 mM): did not stimulate an immune response
- toxicity ([3]; 1 mM dose): significant toxicity occurred

From patent US10772909B2, “System and method for insulin-mimetic of cartilage, bone, or osteochondral repair and piezoelectric composite scaffold” (New Jersey Institute of Technology, priority 2016, dated 2020)
